In ChEMBL document CHEMBL4251585, “Accelerated skin wound healing by selective 11β-Hydroxylase (CYP11B1) inhibitors” (Eur J Med Chem, 2018):

How the values were obtained:
[1] = biological target: T1, 11-beta-hydroxysteroid dehydrogenase type 2 (Homo sapiens, UniProt P80365); test: Inhibition of human 11beta-HSD2 expressed in HEK293 cell lysates at 10 uM using [1,2,6,7-3H]-cortisol as substrate preincubated for 10 mins followed by substrate addition in presence of NAD by scintillation counting relative to control; design: species or system Lysate
T1 sequence (P80365 whole entry): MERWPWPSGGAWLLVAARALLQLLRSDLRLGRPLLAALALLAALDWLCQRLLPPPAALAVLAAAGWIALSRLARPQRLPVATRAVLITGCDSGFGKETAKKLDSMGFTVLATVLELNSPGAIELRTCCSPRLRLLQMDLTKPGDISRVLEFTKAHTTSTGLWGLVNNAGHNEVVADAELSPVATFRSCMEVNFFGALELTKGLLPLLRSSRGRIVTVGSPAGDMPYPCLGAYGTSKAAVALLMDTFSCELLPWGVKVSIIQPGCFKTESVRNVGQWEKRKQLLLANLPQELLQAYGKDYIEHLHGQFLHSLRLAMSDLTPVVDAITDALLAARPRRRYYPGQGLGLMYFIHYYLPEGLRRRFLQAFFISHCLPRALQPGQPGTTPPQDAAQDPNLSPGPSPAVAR

[2] = biological target: T2, Cytochrome P450 11B1, mitochondrial (Homo sapiens, UniProt P15538); test: Inhibition of human CYP11B1 expressed in hamster V79MZ cells using [1,2-3H]-11-deoxycorticosterone as substrate after 6 hrs by HPTLC analysis; type: cell-based
T2 sequence (P15538 whole entry): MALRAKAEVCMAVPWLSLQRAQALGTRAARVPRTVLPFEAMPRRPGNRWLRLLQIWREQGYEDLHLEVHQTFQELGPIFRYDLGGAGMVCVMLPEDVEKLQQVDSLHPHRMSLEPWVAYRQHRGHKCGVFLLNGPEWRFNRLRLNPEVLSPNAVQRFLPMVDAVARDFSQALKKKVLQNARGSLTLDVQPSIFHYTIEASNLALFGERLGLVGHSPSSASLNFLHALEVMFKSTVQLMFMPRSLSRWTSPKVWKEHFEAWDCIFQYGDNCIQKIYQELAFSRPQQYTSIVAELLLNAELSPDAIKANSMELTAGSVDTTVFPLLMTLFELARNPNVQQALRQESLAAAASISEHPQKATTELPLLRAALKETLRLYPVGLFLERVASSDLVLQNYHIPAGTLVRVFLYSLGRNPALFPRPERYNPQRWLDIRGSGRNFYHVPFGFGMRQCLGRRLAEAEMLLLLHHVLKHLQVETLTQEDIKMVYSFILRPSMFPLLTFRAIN

CYP17A1 = biological target: T3, CYP17A1 (Homo sapiens, UniProt P05093); test: Inhibition of human CYP17A1 expressed in Escherichia coli XL1 at 2 uM using [3H]-progesterone as substrate preincubated with substrate for 5 mins measured after 45 mins by HPLC analysis; type: ADME; settings: human CYP17A1 expressed in Escherichia coli XL1, probe [3H]-progesterone
T3 sequence (P05093 whole entry): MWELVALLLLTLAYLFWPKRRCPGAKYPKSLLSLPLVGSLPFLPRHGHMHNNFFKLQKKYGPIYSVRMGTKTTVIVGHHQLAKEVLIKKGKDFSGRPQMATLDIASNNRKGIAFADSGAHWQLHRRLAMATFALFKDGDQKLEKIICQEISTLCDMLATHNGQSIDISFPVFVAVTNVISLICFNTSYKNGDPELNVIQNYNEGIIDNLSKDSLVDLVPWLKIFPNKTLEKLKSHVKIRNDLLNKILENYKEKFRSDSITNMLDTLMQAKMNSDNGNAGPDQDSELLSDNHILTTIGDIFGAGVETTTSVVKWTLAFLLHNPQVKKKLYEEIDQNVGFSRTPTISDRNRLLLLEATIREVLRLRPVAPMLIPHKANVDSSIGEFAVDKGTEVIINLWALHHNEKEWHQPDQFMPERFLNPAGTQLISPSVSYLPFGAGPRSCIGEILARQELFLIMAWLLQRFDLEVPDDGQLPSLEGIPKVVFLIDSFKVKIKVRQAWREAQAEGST

CYP19A1 (aromatase) = biological target: T4, CYP19A1 (aromatase) (Homo sapiens, UniProt P11511); test: Inhibition of human placental microsomal CYP19A1 at 2 uM using [1beta-3H]androstenedione after 21 mins by liquid scintillation spectrometry; type: ADME; settings: placental microsomes, probe [1beta-3H]androstenedione
T4 sequence (P11511 whole entry): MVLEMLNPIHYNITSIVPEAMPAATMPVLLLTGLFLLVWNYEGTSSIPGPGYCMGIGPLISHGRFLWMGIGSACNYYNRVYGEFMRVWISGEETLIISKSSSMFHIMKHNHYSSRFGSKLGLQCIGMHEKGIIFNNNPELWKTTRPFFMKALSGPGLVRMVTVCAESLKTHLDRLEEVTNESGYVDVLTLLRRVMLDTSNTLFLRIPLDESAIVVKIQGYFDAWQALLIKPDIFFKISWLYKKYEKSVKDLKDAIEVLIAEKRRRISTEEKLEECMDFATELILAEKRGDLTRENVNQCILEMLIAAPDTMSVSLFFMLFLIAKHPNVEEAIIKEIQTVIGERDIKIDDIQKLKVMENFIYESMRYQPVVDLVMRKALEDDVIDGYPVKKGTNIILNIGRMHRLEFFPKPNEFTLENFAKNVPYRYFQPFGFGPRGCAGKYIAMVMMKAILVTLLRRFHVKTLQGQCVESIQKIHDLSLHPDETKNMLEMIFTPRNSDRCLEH

[3] = biological target: T5, 11-beta-hydroxysteroid dehydrogenase 1 (Homo sapiens, UniProt P28845); test: Inhibition of human 11beta-HSD1 expressed in HEK293 cell lysate using [1,2-3H]-cortisone as substrate preincubated for 10 mins followed by substrate addition in presence of NADPH by scintillation counting
Target sequence in this assay (P28845 whole entry): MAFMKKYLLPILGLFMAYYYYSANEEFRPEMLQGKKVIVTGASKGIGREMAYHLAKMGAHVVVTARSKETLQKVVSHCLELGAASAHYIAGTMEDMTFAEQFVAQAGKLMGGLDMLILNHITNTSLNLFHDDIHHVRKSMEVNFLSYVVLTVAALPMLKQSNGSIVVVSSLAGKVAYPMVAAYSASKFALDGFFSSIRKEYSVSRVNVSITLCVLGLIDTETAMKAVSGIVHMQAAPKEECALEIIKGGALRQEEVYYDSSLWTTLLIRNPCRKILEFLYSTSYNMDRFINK

[4] = Half life in human liver S9 fraction at 1 uM up to 60 mins in presence of NADPH/UDPGA by LC-MS/MS analysis; type: ADME, subcellular
[5] = biological target: T5, 11-beta-hydroxysteroid dehydrogenase 1; test: Inhibition of human 11beta-HSD1 expressed in HEK293 cell lysates at 200 uM using [1,2-3H]-cortisone as substrate preincubated for 10 mins followed by substrate addition in presence of NADPH by scintillation counting relative to control
Target sequence in this assay (P28845 whole entry, looked up): as the sequence (P28845 whole entry) above

[6] = biological target: T1, 11-beta-hydroxysteroid dehydrogenase type 2; test: Inhibition of human 11beta-HSD2 expressed in HEK293 cell lysates at 200 uM using [1,2,6,7-3H]-cortisol as substrate preincubated for 10 mins followed by substrate addition in presence of NAD by scintillation counting relative to control; design: species or system Lysate
[7] = biological target: T5, 11-beta-hydroxysteroid dehydrogenase 1; test: Inhibition of human 11beta-HSD1 expressed in HEK293 cell lysates at 50 uM using [1,2-3H]-cortisone as substrate preincubated for 10 mins followed by substrate addition in presence of NADPH by scintillation counting relative to control
Target sequence in this assay (P28845 whole entry, looked up): as the sequence (P28845 whole entry) above

Zone of skin [8] = test: Induction of wound healing in human skin explant assessed as re-epithelialization at 5 uM administered topically for 3 days measured on day 2 post administration by hematoxylin-eosin-saffron staining based microscopic analysis (reference value: 28 +/- 2%); type: functional
Salmonella typhimurium [9] = test: Mutagenicity in Salmonella typhimurium TA98 up to 100 uM in absence of rat liver S9 fraction by Ames 2 assay; type: toxicity, organism-based; settings: salmonella enterica subsp. enterica serovar typhimurium
Zone of skin [10] = test: Induction of wound healing in human skin explant assessed as re-epithelialization at 5 uM administered topically for 3 days measured on day 1 post administration by hematoxylin-eosin-saffron staining based microscopic analysis (reference value: 13 +/- 7%); type: functional
Zone of skin [11] = test: Induction of wound healing in human skin explant assessed as re-epithelialization at 5 uM administered topically for 3 days measured on day 3 post administration by hematoxylin-eosin-saffron staining based microscopic analysis relative to control; type: functional
Salmonella typhimurium [12] = test: Mutagenicity in Salmonella typhimurium TA7001/7002/7003/7004/7005/7006 up to 100 uM in absence of rat liver S9 fraction by Ames 2 assay; type: toxicity, organism-based; settings: salmonella enterica subsp. enterica serovar typhimurium
Salmonella typhimurium [13] = test: Mutagenicity in Salmonella typhimurium TA7001/7002/7003/7004/7005/7006 up to 100 uM in presence of rat liver S9 fraction by Ames 2 assay; type: toxicity, organism-based; settings: salmonella enterica subsp. enterica serovar typhimurium
[14] = Half life in human plasma at 1 uM up to 150 mins by LC-MS/MS analysis; type: ADME, cell-free
[15] = Cytotoxicity against human epidermal keratinocytes assessed as cell viability at 11 uM after 72 hrs by MTT assay relative to control; design: species or system Keratinocyte; settings: read-out: Activity
Salmonella typhimurium [16] = test: Mutagenicity in Salmonella typhimurium TA98 up to 100 uM in presence of rat liver S9 fraction by Ames 2 assay; type: toxicity, organism-based; settings: salmonella enterica subsp. enterica serovar typhimurium

| Structure (SMILES) | IC50 [2] | inhibition at 0.75 h, 2 µM (CYP17A1) | inhibition at 0.35 h, 2 µM (CYP19A1 (aromatase)) | half-life at 1 µM [4] | inhibition [5] | inhibition (INH) [6] | further results |
| --- | --- | --- | --- | --- | --- | --- | --- |
| CC(C)(C(=O)c1cccnc1)c1cccnc1 [METYRAPONE] | – | – | 0% | 49 min | 70% | Not Active | inhibition [7]: 54% |
| COc1cncc(Cc2ccc(-c3ccccc3F)nc2)c1 | 0.8 nM | 5% | 2% | 19 min | 48% | Not Active | Activity (Zone of skin [8]): 89%; Activity (Salmonella typhimurium [9]): Non-Toxic; Activity (Zone of skin [10]): 10%; Activity (Zone of skin [11]): 98%; Activity (Salmonella typhimurium [12]): Non-Toxic; Activity (Salmonella typhimurium [13]): Non-Toxic; half-life at 1 µM [14]: > 150 min; viability at 72 h, 11 µM [15]: 87%; Activity (Salmonella typhimurium [16]): Non-Toxic |

More lines, main results first:

| IC50 [2] | inhibition at 0.75 h, 2 µM (CYP17A1) | inhibition at 0.35 h, 2 µM (CYP19A1 (aromatase)) | half-life at 1 µM [4] | inhibition [5] | inhibition (INH) [6] | Structure (SMILES) | further results |
| --- | --- | --- | --- | --- | --- | --- | --- |
| 17 nM | 10% | 0% | 33 min | – | – | Cn1nc(-c2ccccc2)cc1Cc1cncc(O)c1 | inhibition (INH) [1]: Not Active; IC50 [3]: 1620 nM |
| 29 nM | – | 1% | 21 min | – | – | Oc1cncc(Cc2ccc(-c3ccccc3F)nc2)c1 | – |
| 120 nM | – | – | – | – | – | Oc1cncc(Cc2cc(-c3ccccc3)no2)c1 | – |
| 77 nM | – | – | – | – | – | Oc1cncc(Cc2cnc(-c3ccccc3)s2)c1 | – |
